Starred links: 1 amine or outer side, 2 acyl side, 3 side chain; linkers in the order of their positions; H or OH if unused. Non-standard residues stand in square brackets, D forms with d. Residues, ends and D or L forms follow the SMILES beside them. *: point of attachment. Abu(4,4,4-F3) = N[C@@H](CC(F)(F)F)C(=O)O; Phe(4-F) = N[C@@H](Cc1ccc(F)cc1)C(=O)O; Phe(4-Me) = Cc1ccc(C[C@H](N)C(=O)O)cc1; X1 = CC(F)(F)C[C@H](N[*:1])C(=O)[*:2]; Sta = CC(C)C[C@H](N)[C@@H](O)CC(=O)O; Isovaleryl = CC(C)CC(=O)*; Nle = CCCC[C@H](N)C(=O)O; Orn = NCCC[C@H](N)C(=O)O; Dab = NCC[C@H](N)C(=O)O; Abu = CC[C@H](N)C(=O)O
Legend:
Assay type in all cases: biochemical
Sap1 of Candida albicans = Sap1 of Candida albicans (Candida albicans, UniProt P0CY27); assay: Inhibition of proteolytic activity of Sap1 (resorufin-marked casein, fluorescence); conditions: for effectiveness against Sap1 compared with pepstatin A: versus pepstatin A
Sequence of Sap1 of Candida albicans (P0CY27 51-391): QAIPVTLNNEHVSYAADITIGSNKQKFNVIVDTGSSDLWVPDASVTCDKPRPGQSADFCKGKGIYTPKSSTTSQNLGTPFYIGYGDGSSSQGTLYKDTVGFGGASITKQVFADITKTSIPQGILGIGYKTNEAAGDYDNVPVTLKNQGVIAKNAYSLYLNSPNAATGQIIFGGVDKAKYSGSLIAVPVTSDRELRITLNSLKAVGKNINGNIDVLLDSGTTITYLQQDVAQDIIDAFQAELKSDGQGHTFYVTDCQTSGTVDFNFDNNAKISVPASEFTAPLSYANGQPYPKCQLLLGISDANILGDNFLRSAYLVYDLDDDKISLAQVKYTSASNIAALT
Experimental: (§1) For this purpose, that inhibitor concentration was determined in vitro at which the proteolytic activity of the enzyme or its velocity of metabolizing a substrate, respectively, was reduced for 50%.
(§2) The proteolytic activity of the tested Saps was determined at the pH optimum of those Saps. Resorufin-marked casein was used as substrate. Proteolysis of casein can be detected by an increase in fluorescence due to released resorufin (a fluorescence marker) by proteolysis.
(§3) Sap1, Sap3 and Sap6 of Candida albicans were independently dissolved in 2-(N-morpholino)ethanesulfonic acid (MES) having a concentration of 10 mmol/l and a pH of 6.5 resulting in enzyme solutions having a Sap concentration of 100 mmol/l. After one hour incubation at room temperature, 80 μl of a substrate solution comprising resorufin-marked casein in a sodium citrate buffer having a concentration of 500 mmol/l and a pH of 3.5 (in case of Sap3), 4.5 (in case of Sap1) and 5.0 (in case of Sap6) were added to 20 μl of enzyme solution. The resulting Sap concentration was 5 nmol/l. The resulting casein concentration was chosen such that the Saps could work in excess of substrate. Different Sap inhibitors were added, resulting in a final inhibitor concentration of 1 nmol/1, 2 nmol/1, 5 nmol/1, 10 nmol/l, nmol/l or 50 nmol/l in each case. One enzyme-substrate sample was left without addition of inhibitor. All experiments were performed in triplicate.
(§4) The mixture of enzyme and substrate or of enzyme, substrate and inhibitor was incubated at 37° C. under agitation at 300 rpm (rounds per minute) for 60 min in each case. Afterwards, 20 μl of a trichloroacetic acid solution (30%, w/v) were added. The mixture was placed on ice for 5 minutes and centrifuged afterwards for 3 min at 6000 rpm. The supernatant was removed.
(§5) To carry out fluorescence measurements, 100 μl of the supernatant were mixed with 100 μl Tris-HCl (trishydroxymethylaminomethane-HCl) having a concentration of 1 mol/l and a pH of 10.0. The fluorescence of this mixture was measured directly after adding Tris-HCl using an excitation wavelength of 530 nm and an emission wavelength of 590 nm on a CytoFluor 2350 apparatus (Millipore, Bedford, Mass., USA), wherein sensitivity was set to 2 and bandwidth was set to 7.
(§6) The average of three independent fluorescence measurements was calculated. The fluorescence of enzyme without inhibitor (i.e. inhibitor concentration of 0 nmol/l) was set to 100% enzyme activity. The activity of inhibited enzyme was calculated accordingly from the fluorescence of inhibited enzyme with respect to fluorescence of enzyme without inhibitor. Finally, the enzyme activity was plotted against the inhibitor concentration and the IC50 value was determined.

Sap6 of Candida albicans = Sap6 of Candida albicans (Candida albicans, UniProt Q5AC08); assay: Inhibition of proteolytic activity of Sap6 (resorufin-marked casein, fluorescence); conditions: for effect on Sap 6: versus pepstatin A
Sequence of Sap6 of Candida albicans (Q5AC08 77-418): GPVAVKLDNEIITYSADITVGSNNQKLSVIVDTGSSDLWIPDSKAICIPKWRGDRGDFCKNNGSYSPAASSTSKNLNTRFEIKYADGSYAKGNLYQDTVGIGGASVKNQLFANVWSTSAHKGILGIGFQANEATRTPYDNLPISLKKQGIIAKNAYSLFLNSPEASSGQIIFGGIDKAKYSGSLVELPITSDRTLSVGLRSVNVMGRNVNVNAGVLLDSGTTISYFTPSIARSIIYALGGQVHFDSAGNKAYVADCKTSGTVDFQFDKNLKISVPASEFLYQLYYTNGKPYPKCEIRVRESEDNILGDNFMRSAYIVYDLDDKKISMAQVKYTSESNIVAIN
Experimental: as §1, §2, §3, §4, §5, §6

Sap3 of Candida albicans = Sap3 of Candida albicans (Candida albicans, UniProt P0CY29); assay: Inhibition of proteolytic activity of Sap3 (resorufin-marked casein, fluorescence)
Sequence of Sap3 of Candida albicans (P0CY29 59-398): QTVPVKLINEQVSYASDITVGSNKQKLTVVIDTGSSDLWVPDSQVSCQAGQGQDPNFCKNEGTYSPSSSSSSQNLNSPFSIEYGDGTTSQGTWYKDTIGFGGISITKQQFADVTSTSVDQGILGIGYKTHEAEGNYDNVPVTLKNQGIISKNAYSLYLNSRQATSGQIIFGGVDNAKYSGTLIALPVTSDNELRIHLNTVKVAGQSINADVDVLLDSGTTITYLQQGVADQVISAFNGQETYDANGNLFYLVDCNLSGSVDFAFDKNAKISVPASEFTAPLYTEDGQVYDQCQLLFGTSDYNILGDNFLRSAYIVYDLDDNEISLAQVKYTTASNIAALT
Experimental: as §1, §2, §3, §4, §5, §6

Sap5 = Sap5 (Candida albicans, UniProt P43094); assay: Inhibition of proteolytic activity of Sap5
Sequence of Sap5 (P43094 77-418): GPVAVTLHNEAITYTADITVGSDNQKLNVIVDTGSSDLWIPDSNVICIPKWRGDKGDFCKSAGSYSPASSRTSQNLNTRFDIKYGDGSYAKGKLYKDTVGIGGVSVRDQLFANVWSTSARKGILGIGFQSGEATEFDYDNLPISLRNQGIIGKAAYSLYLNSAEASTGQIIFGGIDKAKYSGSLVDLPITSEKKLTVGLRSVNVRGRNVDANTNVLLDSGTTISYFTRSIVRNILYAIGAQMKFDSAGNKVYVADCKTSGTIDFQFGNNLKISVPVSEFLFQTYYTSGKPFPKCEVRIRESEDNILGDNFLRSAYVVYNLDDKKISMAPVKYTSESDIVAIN
Experimental: as §1, §2, §4, §5, §6

Compound | IC50 (Sap1 of Candida albicans) [nM] | effectiveness against Sap1 compared with pepstatin A (Sap1 of Candida albicans) | IC50 (Sap6 of Candida albicans) [nM] | IC50 (Sap3 of Candida albicans) [nM] | IC50 (Sap5) [nM] | effect on Sap 5 (Sap5; versus pepstatin A) | effect on Sap 6 (Sap6 of Candida albicans) | specificity for Sap3 (Sap3 of Candida albicans; versus Sap1 and Sap6) | concentration equally effective in inhibiting Sap1, fold less than that of amprenavir (Sap1 of Candida albicans; versus amprenavir) [fold]
CCCC[C@H](NC(=O)[C@H](Cc1ccccc1)NC(=O)CC(C)C)C(=O)N[C@@H](CC(C)C)[C@@H](O)CC(=O)N[C@@H](CCCCN)C(=O)N[C@@H](CC(C)C)[C@@H](O)CC(=O)O [Compound K, (N-Iva-Phe)-Nle-Sta-Lys-Sta] (Isovaleryl-F[Nle][Sta]K[Sta]-OH) | < 5 | more effective against Sap1 than pepstatin A itself | ~50 | 20 | ~5 | increased effect on Sap 5 | – | – | –
Cc1c(O)cccc1C(=O)N[C@@H](CSc1ccccc1)[C@H](O)CN1C[C@H]2CCCC[C@H]2C[C@H]1C(=O)NC(C)(C)C [Nelfinavir, reference compound] | ~250000 | – | – | > 312000 | – | – | – | – | –
CC(C)CC(=O)N[C@H](C(=O)N[C@H](C(=O)N[C@@H](CC(C)C)[C@@H](O)CC(=O)N[C@@H](CCCNC(=N)N)C(=O)N[C@@H](CC(C)C)[C@@H](O)CC(=O)O)C(C)C)C(C)C [P1'(Arg)-pepstatin, (N-Iva-Val)-Val-Sta-Arg-Sta] (Isovaleryl-VV[Sta]R[Sta]-OH) | ~10 | – | < 5 | < 5 | – | – | increased effects on Sap 6 | – | –
CC(C)CC(=O)N[C@H](C(=O)N[C@H](C(=O)N[C@@H](CC(C)C)[C@@H](O)CC(=O)N[C@@H](CCN)C(=O)N[C@@H](CC(C)C)[C@@H](O)CC(=O)O)C(C)C)C(C)C [P1'(Dab)-pepstatin, (N-Iva-Val)-Val-Sta-Dab-Sta] (Isovaleryl-VV[Sta][Dab][Sta]-OH) | ~400 | – | > 500 | ~20 | – | – | – | very high specificity for Sap3 | –
CC(C)CC(=O)N[C@H](C(=O)N[C@H](C(=O)N[C@@H](CC(C)C)[C@@H](O)CC(=O)N[C@@H](CCCCN)C(=O)N[C@@H](CC(C)C)[C@@H](O)CC(=O)O)C(C)C)C(C)C [P1'(Lys)-pepstatin, (N-Iva-Val)-Val-Sta-Lys-Sta] (Isovaleryl-VV[Sta]K[Sta]-OH) | < 5 | more effective against Sap1 than pepstatin A itself | ~7 | < 5 | – | – | – | – | 1000
CC(C)CC(=O)N[C@H](C(=O)N[C@H](C(=O)N[C@@H](CC(C)C)[C@@H](O)CC(=O)N[C@@H](CCCN)C(=O)N[C@@H](CC(C)C)[C@@H](O)CC(=O)O)C(C)C)C(C)C [P1'(Orn)-pepstatin, (N-Iva-Val)-Val-Sta-Orn-Sta] (Isovaleryl-VV[Sta][Orn][Sta]-OH) | ~20 | – | ~30 | ~15 | – | – | – | – | –
CC[C@H](NC(=O)[C@@H](NC(=O)CC(C)C)C(C)C)C(=O)N[C@@H](CC(C)C)[C@@H](O)CC(=O)N[C@@H](C)C(=O)N[C@@H](CC(C)C)[C@@H](O)CC(=O)O [P2(Abu)-pepstatin, (N-Iva-Val)-Abu-Sta-Ala-Sta, reference compound] (Isovaleryl-V[Abu][Sta]A[Sta]-OH) | ~50 | – | ~20 | < 5 | – | – | – | – | –
CC(C)CC(=O)N[C@H](C(=O)N[C@@H](CC(C)(F)F)C(=O)N[C@@H](CC(C)C)[C@@H](O)CC(=O)N[C@@H](C)C(=O)N[C@@H](CC(C)C)[C@@H](O)CC(=O)O)C(C)C [P2(DfpGly)-pepstatin, (N-Iva-Val)-DfpGly-Sta-Ala-Sta] (Isovaleryl-V[X1][Sta]A[Sta]-OH) | ~20 | – | ~15 | ~5 | – | – | – | – | –
CC(C)CC(=O)N[C@H](C(=O)N[C@@H](CC(C)C)C(=O)N[C@@H](CC(C)C)[C@@H](O)CC(=O)N[C@@H](C)C(=O)N[C@@H](CC(C)C)[C@@H](O)CC(=O)O)C(C)C [P2(Leu)-pepstatin, (N-Iva-Val)-Leu-Sta-Ala-Sta, reference compound] (Isovaleryl-VL[Sta]A[Sta]-OH) | > 500 | – | ~200 | 100 | – | – | – | – | –
CC(C)CC(=O)N[C@H](C(=O)N[C@@H](CCCCN)C(=O)N[C@@H](CC(C)C)[C@@H](O)CC(=O)N[C@@H](C)C(=O)N[C@@H](CC(C)C)[C@@H](O)CC(=O)O)C(C)C [P2(Lys)-pepstatin, (N-Iva-Val)-Lys-Sta-Ala-Sta] (Isovaleryl-VK[Sta]A[Sta]-OH) | > 500 | – | 50 | ~100 | ~20 | – | – | – | –
CCCC[C@H](NC(=O)[C@@H](NC(=O)CC(C)C)C(C)C)C(=O)N[C@@H](CC(C)C)[C@@H](O)CC(=O)N[C@@H](C)C(=O)N[C@@H](CC(C)C)[C@@H](O)CC(=O)O [P2(Nle)-pepstatin, (N-Iva-Val)-N/e-Sta-Ala-Sta] (Isovaleryl-V[Nle][Sta]A[Sta]-OH) | ~10 | – | ~15 | < 5 | 10 | – | – | – | –
CC(C)CC(=O)N[C@H](C(=O)N[C@@H](CC(F)(F)F)C(=O)N[C@@H](CC(C)C)[C@@H](O)CC(=O)N[C@@H](C)C(=O)N[C@@H](CC(C)C)[C@@H](O)CC(=O)O)C(C)C [P2(TfeGly)-pepstatin, (N-Iva-Val)-TfeGly-Sta-Ala-Sta] (Isovaleryl-V[Abu(4,4,4-F3)][Sta]A[Sta]-OH) | ~50 | – | ~20 | < 5 | – | – | – | – | –
CC(C)CC(=O)N[C@@H](CC(C)C)C(=O)N[C@H](C(=O)N[C@@H](CC(C)C)[C@@H](O)CC(=O)N[C@@H](C)C(=O)N[C@@H](CC(C)C)[C@@H](O)CC(=O)O)C(C)C [P3(Leu)-pepstatin, (N-Iva-Leu)-Val-Sta-Ala-Sta, reference compound] (Isovaleryl-LV[Sta]A[Sta]-OH) | > 500 | – | > 500 | < 5 | – | – | – | – | –
Cc1ccc(C[C@H](NC(=O)CC(C)C)C(=O)N[C@H](C(=O)N[C@@H](CC(C)C)[C@@H](O)CC(=O)N[C@@H](C)C(=O)N[C@@H](CC(C)C)[C@@H](O)CC(=O)O)C(C)C)cc1 [P3(MePhe)-pepstatin, (N-Iva-pMePhe)-Val-Sta-Ala-Sta] (Isovaleryl-[Phe(4-Me)]V[Sta]A[Sta]-OH) | ~10 | – | ~20 | ~5 | – | – | – | – | –
COc1ccc(C[C@H](NC(=O)CC(C)C)C(=O)N[C@H](C(=O)N[C@@H](CC(C)C)[C@@H](O)CC(=O)N[C@@H](C)C(=O)N[C@@H](CC(C)C)[C@@H](O)CC(=O)O)C(C)C)cc1 [P3(O—MeTyr)-pepstatin, (N-Iva-OMeTyr)-Val-Sta-Ala-Sta] (Isovaleryl-Y(Me)V[Sta]A[Sta]-OH) | > 500 | – | ~10 | ~5 | – | – | – | – | –
CC(C)CC(=O)N[C@@H](Cc1ccccc1)C(=O)N[C@H](C(=O)N[C@@H](CC(C)C)[C@@H](O)CC(=O)N[C@@H](C)C(=O)N[C@@H](CC(C)C)[C@@H](O)CC(=O)O)C(C)C [P3(Phe)-pepstatin, (N-Iva-Phe)-Val-Sta-Ala-Sta] (Isovaleryl-FV[Sta]A[Sta]-OH) | ~5 | more effective against Sap1 than pepstatin A itself | ~10 | < 5 | – | – | – | – | –
CC(C)CC(=O)N[C@@H](Cc1ccc(O)cc1)C(=O)N[C@H](C(=O)N[C@@H](CC(C)C)[C@@H](O)CC(=O)N[C@@H](C)C(=O)N[C@@H](CC(C)C)[C@@H](O)CC(=O)O)C(C)C [P3(Tyr)-pepstatin, (N-Iva-Tyr)-Val-Sta-Ala-Sta] (Isovaleryl-YV[Sta]A[Sta]-OH) | < 5 | more effective against Sap1 than pepstatin A itself | < 5 | < 5 | – | – | increased effects on Sap 6 | – | –
CC(C)CC(=O)N[C@@H](Cc1ccc(F)cc1)C(=O)N[C@H](C(=O)N[C@@H](CC(C)C)[C@@H](O)CC(=O)N[C@@H](C)C(=O)N[C@@H](CC(C)C)[C@@H](O)CC(=O)O)C(C)C [P3(p-FPhe)-pepstatin, (N-Iva-pFPhe)-Val-Sta-Ala-Sta] (Isovaleryl-[Phe(4-F)]V[Sta]A[Sta]-OH) | < 5 | more effective against Sap1 than pepstatin A itself | ~10 | < 5 | – | – | – | – | –
CC(C)(C)NC(=O)[C@@H]1C[C@@H]2CCCC[C@@H]2CN1C[C@@H](O)[C@H](Cc1ccccc1)NC(=O)[C@H](CC(N)=O)NC(=O)c1ccc2ccccc2n1 [Saquinavir, reference compound] | ~50000 | – | > 312000 | ~200000 | – | – | – | – | –

Source: US8809498B2, “Pepstatin A derivatives” (priority 2008, dated 2014)
